Test system: 496974-208-R-J2-PDC complex spheroids, growth % test/control
Assay: Anticancer human tumor 496974-208-R-J2-PDC patient-derived pancreatic carcinoma cell line growth inhibition [CLK]
Conditions: for IC50: curve of first compound; for viability, T/C: stronger effect = lower value
Summary of the method: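 Multi-cell-type spheroids combined patient-derived tumor cells with HUVEC endothelial cells and human mesenchymal stem cells. Paired agents were dosed in half-log steps down from about clinical Cmax, or from 10 microM where Cmax was unknown.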
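Further: spheroids exposed to the drugs for 7 days before readout.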
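Wherever viability, T/C is given: 100% = DMSO vehicle control wells.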

## COc1ccc([C@@H](O)c2cc(-c3ncnc4cc(N5CCOCC5)ccc34)c(F)cc2Cl)nn1 + CNC(=O)c1ccc(Nc2nc(OC3CCCC3)c3c(-c4ccc5nc(C)oc5c4)c[nH]c3n2)c(OC)c1
Second compound 0.0316 µM
  IC50: 7280 nM
Second compound 0.1 µM
  IC50: 6160 nM
Second compound 0.316 µM
  IC50: 2600 nM
Second compound 1 µM
  IC50: 1710 nM
Second compound 3.16 µM
  IC50: 1360 nM
Second compound 10 µM
  IC50: 306 nM
Second compound 0.0316 µM, first compound 0.0316 µM
  viability, T/C: 102%
Second compound 0.0316 µM, first compound 0.1 µM
  viability, T/C: 88.6%
Second compound 0.0316 µM, first compound 0.316 µM
  viability, T/C: 89.4%
Second compound 0.0316 µM, first compound 1 µM
  viability, T/C: 88.7%
Second compound 0.0316 µM, first compound 3.16 µM
  viability, T/C: 76.1%
Second compound 0.0316 µM, first compound 10 µM
  viability, T/C: 40.1%
Second compound 0.1 µM, first compound 0.0316 µM
  viability, T/C: 78.5%
Second compound 0.1 µM, first compound 0.1 µM
  viability, T/C: 75.8%
Second compound 0.1 µM, first compound 0.316 µM
  viability, T/C: 83.9%
Second compound 0.1 µM, first compound 1 µM
  viability, T/C: 75.9%
Second compound 0.1 µM, first compound 3.16 µM
  viability, T/C: 62.3%
Second compound 0.1 µM, first compound 10 µM
  viability, T/C: 41.1%
Second compound 0.316 µM, first compound 0.0316 µM
  viability, T/C: 71%
Second compound 0.316 µM, first compound 0.1 µM
  viability, T/C: 85.1%
Second compound 0.316 µM, first compound 0.316 µM
  viability, T/C: 68.9%
Second compound 0.316 µM, first compound 1 µM
  viability, T/C: 67.1%
Second compound 0.316 µM, first compound 3.16 µM
  viability, T/C: 46.5%
Second compound 0.316 µM, first compound 10 µM
  viability, T/C: 20.4%
Second compound 1 µM, first compound 0.0316 µM
  viability, T/C: 72%
Second compound 1 µM, first compound 0.1 µM
  viability, T/C: 64.2%
Second compound 1 µM, first compound 0.316 µM
  viability, T/C: 65.1%
Second compound 1 µM, first compound 1 µM
  viability, T/C: 58.1%
Second compound 1 µM, first compound 3.16 µM
  viability, T/C: 41.6%
Second compound 1 µM, first compound 10 µM
  viability, T/C: 23.2%
Second compound 3.16 µM, first compound 0.0316 µM
  viability, T/C: 62.9%
Second compound 3.16 µM, first compound 0.1 µM
  viability, T/C: 68%
Second compound 3.16 µM, first compound 0.316 µM
  viability, T/C: 59.5%
Second compound 3.16 µM, first compound 1 µM
  viability, T/C: 56.3%
Second compound 3.16 µM, first compound 3.16 µM
  viability, T/C: 35.6%
Second compound 3.16 µM, first compound 10 µM
  viability, T/C: 17.9%
Second compound 10 µM, first compound 0.0316 µM
  viability, T/C: 59.7%
Second compound 10 µM, first compound 0.1 µM
  viability, T/C: 55.8%
Second compound 10 µM, first compound 0.316 µM
  viability, T/C: 50.2%
Second compound 10 µM, first compound 1 µM
  viability, T/C: 42.9%
Second compound 10 µM, first compound 3.16 µM
  viability, T/C: 27.3%
Second compound 10 µM, first compound 10 µM
  viability, T/C: 14.2%

Source: PubChem BioAssay AID2060615 (Molecular Pharmacology Branch, DTP, NCI, 2025)
